Data on nine compounds can be found in publication PMC12509328, “Human Internal Exposures of Bisphenol A and Six Data-Poor Analogs Predicted by Physiologically Based Kinetic Models with Multimodal Parametrization” (Environmental Science & Technology, 2025).

Read-outs that look alike come from different tables or passages of the source. Marks after values point to notes of the source that are not given here.

Details of series [1]: method as in Oh et al. The conditions noted are these: blood; previous model, BPS; ref Oh et al.; cited from earlier work.
On the set-up of series [2]: method as in Oh et al. The settings on record: blood, in vivo, 4 men and 3 women, ref Oh et al., cited from earlier work; for Cmax: 8.75 μg/kg bw d4-BPS in a chocolate cookie; for AUC / t max: 8.75 μg/kg bw d4-BPS.
The nature of series [3]: Present human PBK model, model evaluation (scenarios 3 and 4). The settings on record: for predicted blood C max, times higher than in vivo observed / predicted blood C max as percent of the observed value: average; for predicted AUC, times higher than observed: present model vs Teeguarden et al. (BPA dosing); for predicted blood C max as percent of the observed value: present model vs Teeguarden et al. The text has this:
Several exposure scenarios were defined for parameter gathering, model evaluation, and internal exposure assessment (Table ). In scenarios 1 and 2, a rat PBK model was used to parametrize enterohepatic circulation (EHC) rates for application in human PBK models. […] Models were developed for four human physiologies: male (“man”) and female adults (“woman”), male “child”, and male “toddler” (Table S2). These models were selected based on available physiological data for key organs (thyroid, breasts, and testes), related to ED and the detected bisphenol exposure level. The repeated dose scheme from Karrer et al. was reproduced (scenarios 9 to 12) to model chronic exposure via three meals a day.
When not individually compartmentalized, organs were categorized as either slowly perfused tissues or rapidly perfused tissues and combined. Compartments related to the thyroid, testes, and breasts (depending on sex) were included in human but not rat models. Code was compiled in Berkeley Madonna 10 and Python (see Supporting Information and GitLab: https://gitlab.ethz.ch/eth_toxlab/pbk_model_bisphenol_analogs).
These PBK models were parametrized using a multimodal framework that integrates new approach methodology tools into a reproducible chemical-family wide workflow. This framework combines QSARs, in vitro experiments, and cross-species extrapolation to parametrize PBK models for a family of compounds, some of which were considered data-poor (Figure ). […] Organism-based parameters were tailored to account for species, sex, and age when possible (Figure and Table S2). − Parameters based on both the organism and chemical were partition coefficients, intestinal uptake, EHC rate, and glucuronidation kinetics (Figure ).
To address parameter uncertainty in concentrations that were predicted with human PBK models, 10,000 Monte Carlo (MC) simulations were performed. Each sensitive parameter was resampled according to probability distributions from the literature (Table S8). ,− To ensure physiological plausibility, EHC rates were constrained between 0 and 1, and the sum of all relative organ weights and the sum of all relative organ blood flows were kept constant. MC simulation outcomes were analyzed by comparing the first quartile, the median, and the third quartile values of concentrations per time point.

Series [4] deals with rat liver S9 (Sprague-Dawley, male). In words: Glucuronidation kinetics in rat liver S9. As for the experimental part:
(§1) The glucuronidation kinetics of BPA, BPB, BPE, BPF, BPAF, and BPM were determined as described in the Supporting Information (Tables S6 and S7). Outliers were excluded using the Nalimov test.
(§2) Supplementary information on glucuronidation kinetics measurement
(§3) BPA, BPB, BPE and BPM were incubated with Corning® UltraPool™ Human Liver S9 in a buffer containing UDPGA. The S9 reagent (20 mg protein/mL) was aliquoted and stored at -80° C until use. BPAF and BPF were incubated similarly with rat liver S9 (Sprague-Dawley, male, 0.1 mg/mL S9 protein). For each assay, an S9 aliquot was thawed on ice, and a reaction master mix was prepared with 0.1 mg S9 protein/mL in either 0.1 M (for BPA, BPB, BPAF, and BPF) or […] (for BPE and BPM) Tris-HCl, along with 10 mM UDPGA in 50 mM Tris-HCl (pH 7.4), 25 µg/mL alamethicin, and 10 mM magnesium chloride. Negative controls using 0.1 M Tris-HCl without UDPGA were included. Each reaction solution (100 µL) was pre-incubated for 5 min at 37° C with 350 rpm shaking. To this solution was added bisphenol solutions (0 to 20 mM) in DMSO in a ratio of 1:100 to achieve final bisphenol concentrations of 0 to 200 µM and 1% (v/v) […]
(§4) glucuronidation reaction was stopped by adding cold methanol (160 μL) and samples were kept at -20 °C for 1 h to precipitate proteins. The resulting mixture was centrifuged (10 min, 4 °C, 15,000 rcf). Supernatants were analyzed using High-performance liquid chromatography (HPLC) with diode array detector (DAD). Similar experiments were conducted for BPA, BPB, BPE, and BPM with human small intestinal S9 mix (0.025 to 0.25 mg/mL). Bisphenol concentrations ranged from 5 to 120 µM, and incubation times from 15 to 120 min. […]
(§5) series HPLC system with a Waters XBridge BEH130 C18 column (4.6 × 150 mm, 3.5 μm particle size) for separation and a DAD set to a detection wavelength of λ = 280 nm. A gradient elution was used with water containing 0.1% formic acid as eluent A and acetonitrile with 0.1% formic acid as eluent B. The initial condition of 15% eluent B was increased to 65% eluent B over 20 min, and then to 90% eluent B in the next 5 min. […]
(§6) and their glucuronides are provided in Supplementary Table S7. Calibration curves were set from concentrations ranging from 1 to 100 µM.

Another series concerns Human Liver S9. In words: Glucuronidation kinetics in human liver S9. The conditions noted are these: human liver S9 fractions; for Vmax hepatic glucuronidation / Km: GraphPad Prism fitting; for Ksi hepatic glucuronidation: substrate inhibition fit; for Km: read-out: Km hepatic glucuronidation. The method, then: as §1, §2
(§7) BPA, BPB, BPE and BPM were incubated with Corning® UltraPool™ Human Liver S9 in a buffer […]
(§8) containing UDPGA. […]
as §3, with “S9” for “BPA, BPB, BPE and BPM were incubated with Corning® UltraPool™ Human Liver S9 in a buffer containing UDPGA. The S9 reagent (20 mg protein/mL) was aliquoted and stored at -80° C until use. BPAF and BPF were incubated similarly with rat liver S9 (Sprague-Dawley, male, 0.1 mg/mL S9”
(§9) glucuronidation reaction was stopped by adding cold methanol (160 μL) and samples were kept at -20 °C for 1 h to precipitate proteins. The resulting mixture was centrifuged (10 min, 4 °C, 15,000 rcf). Supernatants were analyzed using High-performance liquid chromatography (HPLC) with diode array detector (DAD). […]
(§10) A gradient elution […]
(§11) was used with water containing 0.1% formic acid as eluent A and acetonitrile with 0.1% formic acid as eluent B. The initial condition of 15% eluent B was increased to 65% eluent B over 20 min, and then to 90% eluent B in the next 5 min. […]
as §6

In series [5] the test system is human small intestinal S9. Put plainly: Glucuronidation in human small intestinal S9. It is filed as in vitro ADME. The method, then:
Supplementary information on glucuronidation kinetics measurement […]
µg/mL alamethicin, and 10 mM magnesium chloride. Negative controls using 0.1 M Tris-HCl […]
without UDPGA were included.
37° C with 350 rpm shaking. […]
at -20 °C for 1 h to precipitate proteins. The resulting mixture was centrifuged (10 min, 4 °C, 15,000 rcf). Supernatants were analyzed using High-performance liquid chromatography (HPLC) with diode array detector (DAD). Similar experiments were conducted for BPA, BPB, BPE, and […]
Bisphenol concentrations ranged
The retention times for the various bisphenols […]
as §6

A short description of series [6]: Glucuronidation kinetics in human liver S9. The settings on record: human. The method, then: as §1, §2, §7, §8
as §3, with “S9” for “BPA, BPB, BPE and BPM were incubated with Corning® UltraPool™ Human Liver S9 in a buffer containing UDPGA. The S9 reagent (20 mg protein/mL) was aliquoted and stored at -80° C until use. BPAF and BPF were incubated similarly with rat liver S9 (Sprague-Dawley, male, 0.1 mg/mL S9”
as §9, §10, §11, §6

The conditions of series [7]: ref Yang et al.; cited from earlier work.
On the set-up of series [8]: method as in Thayer et al. The conditions noted are these: ref Thayer et al., cited from earlier work.
The conditions of series [9]: blood; previous model, BPA; ref Karrer et al.; cited from earlier work.
On the set-up of series [10]: method as in Teeguarden et al. The conditions noted are these: ref Teeguarden et al., cited from earlier work.
The nature of series [11]: Glucuronidation kinetics in rat liver S9. The settings on record: male, Sprague-Dawley, rat, rat liver S9, pH 7.4. The method, then:
as §1, §2, §3, §4, §5, §6

Setting [12] is: present model vs Oh et al. (BPS dosing).
Setting [13] is: rat liver S9 fractions, GraphPad Prism fitting.
[14] abbreviates: blood, in vivo, 10 men, 30 μg/kg bw d6-BPA in soup.

In the case of `O=S(=O)(c1ccc(O)cc1)c1ccc(O)cc1` [BPS, Bisphenol S], in [1], the AUC is listed as 39.8 − ^, ^e nM x day; the Cmax (in general, the maximum level reached in the sampled fluid or tissue) was 10.1 nM; the t max was 0.57 (0.26–0.88) ^e h. Further, in series [2], the Cmax was 8.79 nM; the AUC is listed as 40 − , ^d nM x day; the t max is given as 0.5 (0.25–0.5) ^d h. Also, in series [3] (setting [12]), the “delay of average predicted t max vs measure” value was 1.7 h and the “predicted blood C max, times higher than in vivo observed” value was 1.6 times.

With `Oc1ccc(Cc2ccc(O)cc2)cc1` [BPF, Bisphenol F], the Vmax hepatic glucuronidation in series [4] (setting [13]) is 1.17 nmol/min/mg; in series [4] (rat model code), 1.173 nmol/min/mg. Further, the Michaelis constant (Km) (in general, the substrate concentration at which the rate is half of its maximum) in [4] (read-out: Km hepatic glucuronidation, rat liver S9 fractions, GraphPad Prism fitting) was found to be 47.5 µM.

Turning to `CC(c1ccc(O)cc1)c1ccc(O)cc1` [BPE, Bisphenol E], in the series with Human Liver S9, the Vmax hepatic glucuronidation turned out to be 3.42 nmol/min/mg, the Ksi hepatic glucuronidation amounted to 280.6 µM and the Km stood at 51.3 µM. Further, in series [5], the “glucuronidation rates in small intestinal S9 fractions” value is “negligible”.

On to `CC(C)(c1ccc(O)cc1)c1cccc(C(C)(C)c2ccc(O)cc2)c1` [BPM, Bisphenol M], for which, in the series on Human Liver S9, the Vmax hepatic glucuronidation is 4.89 nmol/min/mg, the Ksi hepatic glucuronidation is 51.75 µM and the Km amounted to 20.2 µM. The “glucuronidation rates in small intestinal S9 fractions” value in series [5] is “negligible”.

With `CC(C)(c1ccc(O)cc1)c1ccc(O)cc1` [BPA, bisphenol A], the Km in series [6] (pH 7.4) turned out to be 13.1 µM. In addition, in the series with Human Liver S9, the Vmax hepatic glucuronidation is 4.06 nmol/min/mg. The “glucuronidation rates in small intestinal S9 fractions” value in series [5] is “negligible”. Also, the “glucuronidated BPA undergoing EHC” value in series [7] is reported as “ten”. For the same compound, in series [8] (at 24 h, range 92–100%), the urinary excretion is 98%. The cumulative urinary excretion in series [8] (by 48 h) is given as 80–110%. For the same compound, in series [8], the “urinary fraction of unconjugated BPA” value was 0.029%. For the same compound, the “total BPA excreted” value in series [8] (within 12 h post exposure, range 86–98%) is given as 94%. Moreover, in series [9], the AUC is on record as 4.15 (2.91–5.15) ^c nM x day, the Cmax is 1.31 nM and the t max was 0.72 (0.67–0.77) ^c h. In addition, the urinary excretion in series [10] (at 24 h, range 90–116%) is 104%. For the same compound, in [10] (setting [14]), the AUC is 2.5 (1.4–5.7) ^a nM x day. Also, the “urinary fraction of unconjugated BPA” value in [10] is given as 0.03%. In addition, in series [3], the “predicted AUC, times higher than observed” value is listed as “about 1.5 times” and the “predicted blood C max as percent of the observed value” is 63%.

With `Oc1ccc(C(c2ccc(O)cc2)(C(F)(F)F)C(F)(F)F)cc1` [BPAF, Bisphenol AF], the Vmax hepatic glucuronidation in [4] (setting [13]) was determined as 7.10 nmol/min/mg. Further, the Ksi hepatic glucuronidation in series [4] (rat liver S9 fractions, substrate inhibition fit) was found to be 27.63 µM. In addition, the Km in series [11] is 49.7 µM.

`CC(C)(c1ccc(O)cc1)c1ccc(O[C@@H]2O[C@H](C(=O)O)[C@@H](O)[C@H](O)[C@H]2O)cc1` [BPA glucuronide]: in [9], the maximum concentration (Cmax) is 610 nM and the t max is on record as 0.94 (0.93–0.97) ^c h. For the same compound, the Cmax in series [10] (blood, in vivo, 10 men, 30 μg/kg bw d6-BPA in 355 mL of soup, (range)) was 286 nM. Further, in series [10] (setting [14]), the AUC was 680 (571–1′210) ^a nM x day and the t max is 1.2 (0.8–2.2) ^a h. Further, in [3], the “predicted AUC, times higher than observed” value is reported as “about 1.5 times” and the “predicted blood C max as percent of the observed value” is listed as 80%.

As for `CCC(C)(c1ccc(O)cc1)c1ccc(O)cc1` [BPB, Bisphenol B], the Km in [6] (human liver S9, pH 7.4) turned out to be 12.3 µM. Besides, in the series on Human Liver S9, the Vmax hepatic glucuronidation came to 5.81 nmol/min/mg and the Ksi hepatic glucuronidation is recorded as 21.48 µM. Also, in series [5], the “glucuronidation rates in small intestinal S9 fractions” value was “negligible”.

`O=C(O)[C@H]1O[C@@H](Oc2ccc(S(=O)(=O)c3ccc(O)cc3)cc2)[C@H](O)[C@@H](O)[C@@H]1O` [BPS glucuronide]: in series [2], the Cmax is 10.5 nM, the AUC is given as 78.7 (54–103) ^d nM x day and the t max was 1.0 (1.0–1.0) ^d h. In series [3] (setting [12]), the “mean predicted AUC, times higher than in vivo” value was “about 2.4 times” and the “predicted blood C max, times higher than in vivo observed” value is recorded as 2.8 times.
